Measured values taken from ChEMBL document CHEMBL4007427, “Inhibition of the Aldehyde Dehydrogenase 1/2 Family by Psoralen and Coumarin Derivatives” (J Med Chem, 2017).

Legend:
[1] = target: T1, Aldehyde dehydrogenase 1A1 (Homo sapiens) (UniProt P00352); test: Inhibition of full length recombinant human ALDH1A1 expressed in Escherichia coli BL21(DE3) assessed as remaining dehydrogenase activity by measuring NAD(P)H level at 10 uM preincubated for 2 mins followed by addition of propionaldehyde as substrate in presence of NAD+ by spectrophotometric method
T1 sequence (whole entry): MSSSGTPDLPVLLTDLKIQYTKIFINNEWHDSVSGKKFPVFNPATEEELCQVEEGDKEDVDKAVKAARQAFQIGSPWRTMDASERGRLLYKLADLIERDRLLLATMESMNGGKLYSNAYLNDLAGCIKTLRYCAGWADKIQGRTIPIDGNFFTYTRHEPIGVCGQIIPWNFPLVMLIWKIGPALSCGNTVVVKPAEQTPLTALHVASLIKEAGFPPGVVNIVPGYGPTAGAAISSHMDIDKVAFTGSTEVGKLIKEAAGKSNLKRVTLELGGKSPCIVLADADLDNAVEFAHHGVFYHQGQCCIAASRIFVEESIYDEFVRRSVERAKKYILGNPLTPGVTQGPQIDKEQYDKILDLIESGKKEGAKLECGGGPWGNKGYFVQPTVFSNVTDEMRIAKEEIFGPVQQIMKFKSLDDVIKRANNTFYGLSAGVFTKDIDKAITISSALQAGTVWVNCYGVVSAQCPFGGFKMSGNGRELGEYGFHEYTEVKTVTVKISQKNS

[2] = target: T2, Aldehyde dehydrogenase, mitochondrial (Homo sapiens) (UniProt P05091); test: Inhibition of full length recombinant human ALDH2 expressed in Escherichia coli assessed as remaining dehydrogenase activity by measuring NAD(P)H level at 10 uM preincubated for 2 mins followed by addition of propionaldehyde as substrate in presence of NAD+ by spectrophotometric method
T2 sequence (whole entry): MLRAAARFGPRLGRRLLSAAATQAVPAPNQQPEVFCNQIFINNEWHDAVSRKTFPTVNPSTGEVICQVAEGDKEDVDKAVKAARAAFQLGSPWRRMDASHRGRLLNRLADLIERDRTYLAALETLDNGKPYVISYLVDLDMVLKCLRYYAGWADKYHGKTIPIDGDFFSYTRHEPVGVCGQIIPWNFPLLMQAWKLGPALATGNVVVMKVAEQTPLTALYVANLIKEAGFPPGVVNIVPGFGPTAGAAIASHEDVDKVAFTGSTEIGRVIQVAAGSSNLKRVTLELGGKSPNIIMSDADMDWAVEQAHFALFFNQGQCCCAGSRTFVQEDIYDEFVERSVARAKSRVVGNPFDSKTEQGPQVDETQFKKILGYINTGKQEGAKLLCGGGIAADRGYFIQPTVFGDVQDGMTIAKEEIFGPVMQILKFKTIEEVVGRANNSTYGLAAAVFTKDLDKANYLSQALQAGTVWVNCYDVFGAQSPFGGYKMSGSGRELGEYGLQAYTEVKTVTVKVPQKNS

[3] = target: T3, Aldehyde dehydrogenase, dimeric NADP-preferring (Homo sapiens) (UniProt P30838); test: Inhibition of full length recombinant human ALDH3A1 expressed in Escherichia coli BL21(DE3) assessed as remaining dehydrogenase activity by measuring NAD(P)H level at 10 uM preincubated for 2 mins followed by addition of propionaldehyde as substrate in presence of NAD+ by spectrophotometric method
T3 sequence (whole entry): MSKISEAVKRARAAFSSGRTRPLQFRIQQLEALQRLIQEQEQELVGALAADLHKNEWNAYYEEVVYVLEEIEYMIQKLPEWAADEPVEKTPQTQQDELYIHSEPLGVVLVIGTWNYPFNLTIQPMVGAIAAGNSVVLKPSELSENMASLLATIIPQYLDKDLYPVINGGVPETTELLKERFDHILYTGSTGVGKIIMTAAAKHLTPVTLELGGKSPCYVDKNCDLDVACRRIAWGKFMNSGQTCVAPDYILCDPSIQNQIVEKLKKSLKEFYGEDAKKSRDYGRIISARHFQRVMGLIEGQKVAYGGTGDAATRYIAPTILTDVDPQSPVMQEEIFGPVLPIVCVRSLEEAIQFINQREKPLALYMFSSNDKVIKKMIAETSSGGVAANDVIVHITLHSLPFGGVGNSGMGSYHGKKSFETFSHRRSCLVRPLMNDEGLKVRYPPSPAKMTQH

[4] = Lipophilicity, log P of the compound; format: physicochemical; conditions: octanol/water
[5] = target: T4, Aldehyde dehydrogenase, dimeric NADP-preferring (Homo sapiens, UniProt P30838); test: Inhibition of full length recombinant human ALDH3A1 expressed in Escherichia coli BL21(DE3) assessed as reduction in dehydrogenase activity by measuring NAD(P)H level preincubated for 2 mins followed by addition of benzaldehyde as substrate in presence of NADP+ by spectrophotometric method
T4 sequence (P30838 whole entry): T3 sequence (whole entry)

[6] = target: T5, Aldehyde dehydrogenase, mitochondrial (Homo sapiens, UniProt P05091)
T5 sequence (P05091 whole entry): T2 sequence (whole entry)
Description: Inhibition of full length recombinant human ALDH2 expressed in Escherichia coli assessed as reduction in dehydrogenase activity by measuring NAD(P)H level preincubated for 2 mins followed by addition of propionaldehyde as substrate in presence of NAD+ by spectrophotometric method

[7] = target: T6, Aldehyde dehydrogenase 1A1 (Homo sapiens, UniProt P00352)
T6 sequence (P00352 whole entry): T1 sequence (whole entry)
Description: Inhibition of full length recombinant human ALDH1A1 expressed in Escherichia coli BL21(DE3) assessed as reduction in dehydrogenase activity by measuring NAD(P)H level preincubated for 2 mins followed by addition of propionaldehyde as substrate in presence of NAD+ by spectrophotometric method

Compound | Activity [1] [%] | Activity [2] [%] | Activity [3] [%] | logP [4] | IC50 [5] | IC50 [6] [nM] | IC50 [7]
Cc1c(C)c2cc3c(C(C)(C)C)coc3cc2oc1=O | 94.5 | 69.7 | 87 | 3.94 | – | – | –
Cc1c(C)c2cc3c4c(oc3cc2oc1=O)CCCC4 | 64.3 | 61.3 | 96.1 | 4.48 | – | – | –
Cc1c(C)c2c(cc(C)c3c(C)coc32)oc1=O | 71.5 | 46.4 | 98.1 | 3.92 | Not Active | 150 | Not Active
Cc1cc(=O)oc2cc(OCC(=O)c3ccccc3)ccc12 | 29 | 97.8 | 67.1 | 3.19 | – | – | –
Cc1oc2cc3oc(=O)c4ccccc4c3cc2c1C | 82.4 | 42.2 | 93.4 | 3.89 | Not Active | 150 | Not Active
CC(C)=CCOc1ccc2c(C)cc(=O)oc2c1 | 37.3 | 93.3 | 23.7 | 3.94 | – | – | –
C=CCOc1ccc2c(C)cc(=O)oc2c1 | 35.5 | 94.6 | 9.46 | 3.01 | – | – | –
Cc1oc2cc3oc(=O)c(CCC(=O)NCc4ccccc4)c(C)c3cc2c1C | 93.6 | 69.8 | 68.3 | 4.52 | – | – | –
Cc1oc2c(C)c3oc(=O)c(C)c(C)c3cc2c1C | 78.4 | 87.2 | 102 | 4.36 | – | – | –
Cc1c(CCC(=O)O)c(=O)oc2cc(O)ccc12 | 96.6 | 101 | 105 | 1.82 | – | – | –
Cc1c(C)c2cc3c(-c4ccccc4)coc3cc2oc1=O | 87.4 | 92.8 | 88.9 | 4.8 | – | – | –
Cc1cc2oc(=O)cc(C)c2cc1NC(=O)C(C)C | 59.8 | 96.3 | 105 | 2.05 | – | – | –
CC(=O)C(C)Oc1ccc2ccc(=O)oc2c1 (stereo not drawn) | 91.4 | 93.3 | 106 | 1.4 | – | – | –
CC(=O)COc1ccc2c(C)cc(=O)oc2c1 | 52.2 | 99.1 | 64.1 | 1.37 | – | – | –
Cc1coc2cc3oc(=O)c(Cc4ccccc4)c(C)c3cc12 | 58.5 | 83.6 | 90.3 | 4.98 | – | – | –
Cc1c(C)c2cc3c(=O)ccoc3c(C)c2oc1=O | 67.4 | 80.2 | 79.2 | 2.1 | – | – | –
Cc1oc2cc3oc(=O)cc(Cc4ccccc4)c3cc2c1C | 57 | 73.7 | 81.6 | 4.8 | – | – | –
CC(=O)C(C)Oc1ccc2c(C)cc(=O)oc2c1 (stereo not drawn) | 68.7 | 94.4 | 101 | 1.72 | – | – | –
Cc1cc(=O)oc2cc(OCC(=O)Nc3ccccc3)ccc12 | 49.6 | 95 | 95.5 | 2.85 | – | – | –
Cc1cc(=O)oc2cc(OCC(N)=O)ccc12 | 28.5 | 89.5 | 67.1 | 1.71 | – | – | –
Cc1cc(=O)oc2cc(OC(C)C(=O)O)ccc12 (stereo not drawn) | 97.5 | 99.3 | 93.9 | 1.63 | – | – | –
COc1ccc2c(C)cc(=O)oc2c1 [HYMECROMONE METHYL ETHER] | 80.2 | 94.8 | 36.4 | 2.46 | – | – | –
CC(=O)C(C)Oc1ccc2c(c1)oc(=O)c1ccccc12 (stereo not drawn) | 58.7 | 64.4 | 103 | 2.64 | – | – | –
